Experimental data as given in patent US7282503B2 (priority 2002, dated 2007).
Like-named read-outs stand apart in the source and are kept apart here.

Tests used:
Phytophthora infestans = format: in vivo; details: individual active compound, control 90% infection
Plasmopara viticola = assay: Activity against peronospora of vines caused by Plasmopara viticola (protective spray, potted vines); format: in vivo, Plasmopara viticola on vines cultivar Müller-Thurgau; details: individual active compound, control 88% infection
Protocol: The active compounds, separately or together, were prepared as a stock solution with 0.25% by weight of active compound in acetone or DMSO. 1% by weight of the emulsifier Uniperol® EL (wetting agent having emulsifying and dispersing action based on ethoxylated alkylphenols) was added to this solution, and the solution was diluted with water to the desired concentration.
Evaluation is carried out by determining the infected leaf areas as a percentage. These percentages are converted into efficacies. The efficacy (W) is calculated as follows using Abbot's formula: W=(1−α/β)·100 α corresponds to the fungal infection of the treated plants in % and β corresponds to the fungal infection of the untreated (control) plants in % An efficacy of 0 means that the infection level of the treated plants corresponds to that of the untreated control plants; an efficacy of 100 means that the treated plants were not infected. The expected efficacies of the mixtures of the active compounds are determined using Colby's formula [R. S. Colby, Weeds 15, 20-22 (1967)] and compared with the observed efficacies. Colby's formula: E=x+y−x·y/100 […]
E expected efficacy, expressed as a % of the untreated control, when using the mixture of the active compounds A and B at the concentrations a and b x efficacy, expressed as a % of the untreated control, when using active compound A at a concentration a y efficacy, expressed as a % of the untreated control, when using active compound B at a concentration b Leaves of potted vines of the cultivar “Müller-Thurgau” were sprayed to runoff point with an aqueous suspension having the concentration of active compounds stated below. The next day, the undersides of the leaves were inoculated with an aqueous zoospore suspension of Plasmopara viticola. The vines were then initially placed in a water-vapor-saturated chamber at 24° C. for 48 hours and then in a greenhouse at 20-30° C. for 5 days. After this period of time, the plants were again placed in a moist chamber for 16 hours to promote sporangiophore eruption. The extent to which the infection had developed on the undersides of the leaves was then determined visually.

Structure (SMILES)	Efficacy in % of the untreated control (Phytophthora infestans; 3.75 ppm in spray liquid)	Efficacy in % of the untreated control (Phytophthora infestans; 7.5 ppm in spray liquid)	Efficacy in % of the untreated control (Phytophthora infestans; 15 ppm in spray liquid)	Efficacy in % of the untreated control (Phytophthora infestans; 30 ppm in spray liquid)	Efficacy in % of the untreated control (Plasmopara viticola; 3.75 ppm in spray liquor)	Efficacy in % of the untreated control (Plasmopara viticola; 7.5 ppm in spray liquor)	Efficacy in % of the untreated control (Phytophthora infestans; 0.75 ppm in spray liquid)	Efficacy in % of the untreated control (Phytophthora infestans; 1.5 ppm in spray liquid)	Efficacy in % of the untreated control (Phytophthora infestans; 3 ppm in spray liquid)	Efficacy in % of the untreated control (Phytophthora infestans; 6 ppm in spray liquid)	Efficacy in % of the untreated control (Plasmopara viticola; 3 ppm in spray liquor)	Efficacy in % of the untreated control (Plasmopara viticola; 6 ppm in spray liquor)
CC1CCN(c2c(-c3c(F)cc(F)cc3F)c(Cl)nc3ncnn23)CC1 [I, 5-chloro-7-(4-methyl-pipiridin-1-yl)-6-(2,4,6-trifluorophenyl)-[1,2,4]triazolo[1,5-a]pyrimidine]	0%	0%	0%	33%	9%	32%						
Cc1ccc(-c2c(Cl)nc(C#N)n2S(=O)(=O)N(C)C)cc1 [IIa, cyazofamid]							56%	67%	78%	89%	72%	83%
